Laboratory results taken from US20090119801A1, “Method for preserving cut flowers, cut flower preservation kit, method for manufacturing processed cut flowers, and processed cut flowers” (SUNTORY FLOWERS LIMITED, priority 2007, published 2009).

experiment: not given; conditions: logP; cited from earlier work

Point of comparison: `CC(C)=O` [acetone], partition coefficient −0.157. Against it:
- CO [Methanol] — lower, −0.719
- C1COCCO1 [1,4-dioxane] — lower, −0.271

experiment: Volatilization rate of organic solvents (Table 2); format: physicochemical; conditions: not given

Point of comparison: `CCCCC(CC)COCCO` (stereo not shown) [2-(2-ethylhexyloxy)ethanol], “volatilization rate (%)” value 1%. Against it:
- OCC(O)CO [glycerin] — lower, 0%
- OCCO [ethylene glycol] — lower, 0%
- CCCC(O)C(CC)CO (stereo not shown) [2-ethyl-1,3-hexanediol] — lower, 0%
- CC(O)CC(C)(C)O (stereo not shown) [2-methyl-2,4-pentanediol] — higher, 3%
- CC(CCO)CCO [3-methyl-1,5-pentanediol] — lower, 0%
- CCCCC(CC)COCCOCCO (stereo not shown) [2-[2-(2-ethylhexyloxy)ethoxy]ethanol] — lower, 0%
